Measured values as given in a melting point compilation (Tetko et al.; mined from patent text by program, amines drawn as free bases though some values may be those of a salt).

SMILES | melting point [°C]
NS(=O)(=O)c1ccc(-n2nc(C(F)(F)F)cc2-c2nc3ccccc3s2)cc1 | 254 to 256
Cc1ccc(C)n1CC(=O)N=C(N)N | 198 to 200
CC(C)(C)OC(=O)Cn1c(-c2ccccn2)nc2cccnc21 | 124 to 126
[O-][N+](=CC=Cc1ccccc1)c1ccccc1 | 150 to 152
CNC(=O)c1cccc(F)c1Nc1nc(Nc2ccc3c(c2)N(CCOC)C(=O)CCC3)ncc1Br | 211 to 224
COc1cc(Oc2ccc(S(C)(=O)=O)nc2)cc2cc(C3=NCC(CC(=O)NCC(C)(C)O)S3)[nH]c12 (configuration not stated) | 173 to 174
CCOC(=O)c1ccc(C)nc1 | 57 to 58
CCOC(=O)c1ccc(-c2coc(-c3cccc(C(F)(F)F)c3)n2)cc1 | 132 to 133
C/C(=C(\C#N)C(N)=S)N1CCC(C)CC1 | 156 to 159
Cc1cc(SC2=C(O)CC(C3CCCC3)(C3CCCC3)OC2=O)c(C(C)(C)C)cc1N | 163 to 165
CC1(C)CCC(C)(C)c2cc3oc(-c4ccc(C(=O)O)cc4)nc3cc21 | 290
O=C1N(CC2CCCO2)c2ccccc2C12COc1cc3c(cc12)OCCCO3 (configuration not stated) | 134 to 138
Cc1cccc(C)c1Nc1nc(-c2nc3ccc(C(F)(F)F)cc3[nH]2)cs1 | 250 to 251
Cc1ccc(NCc2ccc(N(C)C)cc2)c(C)c1 | 79 to 80
Nc1cc(F)c(C2CCSCC2)c(F)c1 | 118 to 119
Cc1cc(F)c(Cl)cc1[N+](=O)[O-] | 57 to 58
O=C(O)CNC(=O)NC(=O)C(CC1CCCC1)c1ccc(Cl)c(Cl)c1 (configuration not stated) | 204 to 207
CC(C)C[C@H](NC(=O)NCc1ccccc1)C(=O)N[C@@H](C(C)C)[C@@H](O)c1c(-c2ccccc2)c1=O | 160
O=C(O)C(=O)c1ccc(OCCOc2cc3ccccc3c3ccccc23)cc1 | 179 to 180
CC(C)Oc1cc(Oc2ccc(C(F)(F)F)cn2)ccc1CCCOc1cc(CCC(=O)O)n(C)n1 | 128 to 130
CCN(C)c1cccc(Cl)c1COc1cccn2c(Br)c(C)nc12 | 124 to 126
Cc1noc(NS(=O)(=O)c2ccc(NC(=O)c3ccccc3)cc2-c2ccc(CC(C)C)cc2)c1C | 207 to 211
CC1(C(=O)c2c[nH]c3ncc(-c4cccc(N5CCN(S(C)(=O)=O)CC5)c4)nc23)CCCCC1 | 230 to 231
CS(=O)(=O)c1ccc(C2=CC(=O)C3(CCOCC3)O2)cc1 | 163 to 165
COc1ccc(C(=O)c2cc(Br)c(OC)cc2OC)c(F)c1 | 114 to 115
COc1cc(N)c(Cl)cc1C(=O)NC1CCN(C(C)CC(C(=O)N(C)C)(c2ccccc2)c2ccccc2)CC1OC (configuration not stated) | 198

SMILES | melting point [°C]
Cc1ccc(NCC2CCN(C(C)C)CC2)c(C(=O)Nc2ccc(F)cn2)c1 | 58 to 60
CCNC(=O)n1ccc(O)cc1=O | 272
Cn1nc(-c2c(F)cccc2F)nc1-c1ccc(OCc2ccc(C(F)(F)F)cc2)c(Cl)c1 | 171 to 177
Cc1ccc2c(c1)C(O)(c1ccc3c(c1)OCO3)C(=O)N2Cc1ccc(Cl)cc1 (configuration not stated) | 122 to 124
O=C(O)COCCN(C1CC1)S(=O)(=O)c1ccccc1Cl | 115
CNC(=O)c1ccc2ccccc2c1 | 108 to 109
CSC(C(=O)c1cc(-c2ccccc2)on1)N1CCCCC1 (configuration not stated) | 113 to 115
Cc1cccc(-c2n[nH]cc2Cl)c1 | 109
CCC(=O)c1cnc2c(O)cccc2c1Nc1ccccc1C | 125 to 128
Cc1cc(-c2ccc3c(=O)c(C(=O)O)cn(-c4ccc(F)cc4)c3c2)on1 | 281 to 282
CSc1nc(NCc2ccc(-c3ccccn3)cc2)n2ncc(C(C)C)c2n1 | 136 to 138
Cc1ccc(C(=O)Nc2ccccc2)cc1NC(=S)Nc1cc(Cl)cc(Cl)c1 | 182 to 184
COc1cc2c(Nc3ccc(Cl)cc3F)ncnc2cc1OCCn1ccccc1=O | 209 to 211
N#Cc1ccc(-c2cc(-c3ccc(C#N)cc3[N+](=O)[O-])no2)cc1 | 264 to 265
O=C(O)c1ccc2c(=O)c3ccccc3ccc2c1 | 261 to 262
CCOC(=O)CC(=O)c1cccc([N+](=O)[O-])c1C | 50 to 51
COc1c(C(O)CNC(C)(C)Cc2c(C)cc(C)cc2C)ccc(O)c1O (configuration not stated) | 98 to 105
CN(C)c1ccc(C(=O)CCCCC2CCN(Cc3ccccc3)CC2)cc1 | 121 to 123
Cc1ccc(Sc2ncnc3c(C)csc23)cc1 | 103 to 107
Nc1ncnc2c1ncn2OCC(CO)SCP(=O)(O)O (configuration not stated) | 195 to 197
O=C(O)Cc1csc(NC(=O)OCC(Cl)(Cl)Cl)n1 | 164
CN(C)S(=O)(=O)NCc1ccc(C(c2cc(F)ccc2F)S(=O)(=O)c2ccc(Cl)cc2)nc1 (configuration not stated) | 177 to 178
CCOC(=O)CCC(=O)c1cc(-c2ccccc2)nc2ccccc12 | 66
O=P(O)(O)C(F)P(=O)(O)O | 162 to 163
Cc1ccc(S(=O)(=O)n2cc(C[C@H]3CCCN3C)c3cc(Br)ccc32)cc1 | 98 to 104
Cn1nnnc1SCC(=O)NC/C=C\COc1cc(CN2CCCCC2)ccn1 | 58 to 62

SMILES | melting point [°C]
CC(C)(C)P(=O)(CCC(=O)O)CCC(=O)O | 174
CCOC(=O)c1snc(-c2ccc(F)cc2)c1N | 137 to 139
CC(=O)c1ccc(NS(=O)(=O)c2ccc3c(c2)-c2c(nc(C)[nH]c2=O)CC3)cc1 | > 240
COC(=O)c1nc(-c2ccc(C)c(OC)c2F)cc(N)c1Cl | 95 to 96
N#Cc1ccc(Oc2ccc3ccc(Oc4ccc(C#N)c(C#N)c4)cc3c2)cc1C#N | 201 to 204
C=CCN(CC(=O)OC(C)(C)C)c1c(N)c(=O)c1=O | 175 to 176
CC(C)c1ccccc1Sc1c(O)cc(-c2cccc(Cl)c2)oc1=O | 177 to 178
COc1ccccc1-c1c(N)c2ccc(Cl)cc2[nH]c1=O | 284 to 286
CCNC(=O)ON1C(=O)CCC1=O | 131 to 133
Cc1cc2ccccc2c(Oc2ccc(/C=C/C(=O)O)cc2)c1-c1ccccc1 | 224 to 225
Cc1oc2c(-n3c(=O)cc(C(F)(F)F)n(C)c3=O)ccc(Cl)c2c1[N+](=O)[O-] | 174 to 175
COc1ccc(Sc2nn(-c3ccc(OC)cc3)c(=O)c(C#N)c2C)cc1 | 188 to 190
Cn1ccn(CC#CCn2ccnc2)c1=O | 106 to 109
CC(=O)NCCNc1nc(-c2ccccc2)nc2[nH]c(COc3ccccc3)cc12 | 196 to 197
COC(=O)[C@]12CN(Cc3ccccc3)C[C@@H]1C(=O)CC[C@@]2(C)c1ccccc1 (racemic) | 115
CCOc1c(C(=O)O)cnc2c1cnn2CC | 198 to 199
CCNC(=O)Oc1ccccc1 | 49 to 50
C#Cc1ccc2ccc(OC(CC)C(=O)NC(C)(C)CO)cc2c1 (configuration not stated) | 81 to 82
Cc1nc2n(C)c(C)cn2c(=O)c1CCBr | 125
Cc1cccc(O[C@@H]2CCNC[C@H]2O)c1C (relative stereo) | 127 to 129
CCCCCCCCC=CCCCCCCCC(=O)OCCCCCCCCCC | 70
CC(CC(=O)NCc1ccccc1)C(N)=O (configuration not stated) | 127 to 129
Cc1nc(-c2ccc(C(F)(F)F)cc2)oc1CSc1ccc(OCC(=O)O)cc1 | 131 to 133
Cc1oc(-c2ccccc2)nc1COc1ccc(COc2cccnc2CC#N)cc1 | 138 to 139
O=C1OC(=O)C2=C1SCC(c1ccccc1)S2 (configuration not stated) | 131 to 133
O=[N+]([O-])c1ccc(-c2nnsc2-c2ccc([N+](=O)[O-])cc2)cc1 | 185 to 186

SMILES | melting point [°C]
CCc1nc(-c2ccc(OCCn3ccnc3)cc2)no1 | 81 to 82
COC(=O)c1ccc(-c2nnc(-c3cccc(NS(=O)(=O)c4ccc(C)cc4)c3)o2)cc1 | 227 to 228
O=C(Nc1cccc2[nH]ccc12)c1ccccc1OCCCCBr | 135
COc1ccc(-c2cnc(N)c(Cc3ccccc3)n2)cc1 | 150 to 153
CCC(=O)N[C@@H](C)C(=O)N1CCC[C@H]1C(=O)NC1CCCCCC1 | 155 to 156
Cc1c(O)cc(O)c(C)c1C(=O)OCc1ccc([N+](=O)[O-])cc1 | 164 to 166
O=c1[nH]c2ccc(-c3cccc(Cl)c3)cc2n1Cc1ccccc1 | 168 to 169
O=C(O)c1c(O)cccc1-c1ccccc1 | 143 to 146
CCCCn1c(=O)c2c(N3CCN(C)CC3)cc(Cl)cc2n(Cc2ccccc2)c1=O | 121 to 123
Cc1ccc(O)c(C)c1C=O | 159 to 165
CS(=O)(=O)c1ccc(-c2nc3cc(C4CCN(S(=O)(=O)CCCO)CC4)ccc3o2)c(F)c1 | 204 to 206
COC(Cc1c(Br)cc(Br)c(C(N)=O)c1Br)C(=O)O (configuration not stated) | 138 to 139
CCOC(=O)Cc1nc(-c2ccc(Cl)cc2)oc1-c1ccoc1 | 124 to 125
CC(C)(C)OC(=O)c1ncn2c1[C@@H]1CCCN1C(=O)c1c-2ccc(Cl)c1Cl | 213 to 214
Oc1ncc(Br)cc1C(F)(F)F | 160 to 162
CCCCNC(=O)Oc1ccc(Oc2ccccc2)cc1C(=O)OC | 53 to 56
CC(=O)c1cccc(C=CC(=O)N2CCc3c([nH]c4ccccc34)C2c2ccc3c(c2)OCO3)c1 (configuration not stated) | 191
Cc1cccc(NC(=O)NC2N=C(C3CCCC3)c3ccccc3N(Cc3ncccc3C)C2=O)c1 (racemic) | 198 to 199
CC(=O)Nc1ccccc1NS(=O)(=O)c1cc(C(=O)O)cc(NCc2ccccc2)c1Oc1ccccc1 | 197 to 200
OC(Cc1ccc(Cl)cc1Cl)(Cn1cncn1)c1ccc(-c2ccccc2)cc1 (configuration not stated) | 124
CCCc1cc(C(=O)O)ccc1OCCCCCCc1cccc(O)c1O | 123 to 124
CS(=O)(=O)c1ccc(-c2oc(CCC(N)=O)nc2-c2ccc(F)cc2)cc1 | 193 to 195
NCc1c(CN(Cc2ccccc2)Cc2ccccc2)cccc1C(F)(F)C(F)(F)c1ccccc1 | 172 to 174
CSc1cnc2sccc2c1O | 203 to 205
